The values that follow come from article PMC3382068 (Bioorganic & medicinal chemistry, 2011).

“Also recorded” adds a separate entry of the source.

Test [1] has as its system GFP-K-Ras in Jurkat T cells. As to the kind of experiment: Subcellular localization of GFP-K-Ras by fluorescence microscopy. Particulars: 0.1 μM, 24 hours. The format is cell-based.
Test [2] concerns Erk phosphorylation in Jurkat T cells. As to the kind of experiment: Signaling assay: anti-CD-3ε dependent Erk phosphorylation. The format is cell-based. The settings on record: 25 μM, 24 h, then anti-CD-3ε stimulation.
The test system of test [3] is Ras activation in Jurkat T cells. As to the kind of experiment: GST-RBD pull down assay of active GTP-bound Ras. It is filed as cell-based. The settings on record: 25 μM, 24 h, then anti-CD-3ε stimulation.
Test [4] concerns the target T1, hIcmt (Homo sapiens, UniProt O60725). Briefly: Kinetic mode of inhibition and KI determination.
Test [5] addresses T1, hIcmt. As to the kind of experiment: In vitro vapor diffusion methyltransferase assay, inhibition of hIcmt. Particulars: for Loss of inhibitory activity as compared to compound 1a: fold; for hIcmt inhibition (in words): 10 μM compound, 25 μM AFC. The format is biochemical.
For test [6], the system named is PC3 prostate cancer cells. The settings on record: cited from earlier work.
Test [7] concerns the target T1, hIcmt. Particulars: read-out: IC50 against hIcmt; previously reported; cited from earlier work.

T1 sequence (O60725 whole entry, the tested form may be a part): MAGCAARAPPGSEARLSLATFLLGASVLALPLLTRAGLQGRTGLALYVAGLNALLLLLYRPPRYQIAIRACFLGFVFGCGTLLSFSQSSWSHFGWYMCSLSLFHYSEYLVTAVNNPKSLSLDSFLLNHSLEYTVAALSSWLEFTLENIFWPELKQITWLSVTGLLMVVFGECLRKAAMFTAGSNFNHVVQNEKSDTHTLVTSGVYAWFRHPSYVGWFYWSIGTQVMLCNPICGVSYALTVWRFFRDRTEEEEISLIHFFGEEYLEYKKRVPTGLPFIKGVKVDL

Consider `CC(C)=CC/C(=C/CSC[C@H](NC(=O)c1ccccc1Oc1ccccc1)C(=O)O)CCc1ccc(-c2ccccc2)cc1` [Compound 1b, N-2-Phenoxybenzoyl-S-3-(3-methyl-but-2-enyl)-5-(4-biphenyl)pent-2-enyl-L-cysteine], for which, in test [1], the “Prevention of GFP-K-Ras membrane localization” value is “approximately 35%”. Further, the “Decrease of Erk activation compared to the control” value in test [2] is “approximately three-fold”. Besides, the Ras activation result in test [3] is on record as “inhibited Ras activation significantly”. The compound further returned a Ki in test [4] of 500 ± 70 nM. For the same compound, the Mode of inhibition entry in test [4] (AFC varied, inhibitor concentration fixed) is given as “mixed-mode inhibition; also recorded: mixed-type inhibition”. In addition, the α value result in test [4] (mixed-type inhibition, competitive component dominated) is “greater than 1”.
Regarding `CC(C)=CCC/C(C)=C/CC/C(C)=C/CSC[C@H](NC(=O)c1ccccc1Cc1ccccc1)C(=O)O` [Compound 2c, (R)-2-(2-benzylbenzamido)-3-(((2E,6E)-3,7,11-trimethyldodeca-2,6,10-trien-1-yl)thio)propanoic acid], in test [5], the “Loss of inhibitory activity as compared to compound 1a” value is given as “roughly four-fold”.
The same measure, in the same setting: the result for `CC(C)=CCC/C(C)=C/CC/C(C)=C/CSC[C@H](NC(=O)c1ccccc1Sc1ccccc1)C(=O)O` [Compound 2d, (R)-2-(2-(phenylthio)benzamido)-3-(((2E,6E)-3,7,11-trimethyldodeca-2,6,10-trien-1-yl)thio)propanoic acid] reads “roughly four-fold”.
`CC(C)=CCC/C(C)=C/CC/C(C)=C/CC/C(C)=C/CSC[C@H](NC(=O)c1ccccc1Oc1ccccc1)C(=O)O` [Compound 19, (R)-2-(2-phenoxybenzamido)-3-(((2E,6E,10E)-3,7,11,15-tetramethylhexadeca-2,6,10,14-tetraen-1-yl)thio)propanoic acid]: the “hIcmt inhibition (in words)” value in test [5] is listed as “significant loss of hIcmt inhibition”.
Consider `CC(C)=CCC/C(C)=C/CC/C(C)=C/CSC[C@@H](C(=O)O)N(C)C(=O)c1ccccc1Oc1ccccc1` [Compound 20, (R)-2-(N-methyl-2-phenoxybenzamido)-3-(((2E,6E)-3,7,11-trimethyldodeca-2,6,10-trien-1-yl)thio)propanoic acid], for which the “hIcmt inhibition (in words)” value in test [5] is listed as “equivalent to our previous lead, 1a, in terms of percent inhibition”.
As to `CCCCCCCCCCCSC[C@H](NC(=O)c1ccccc1Oc1ccccc1)C(=O)O` [Compound 21, ((R)-2-(2-phenoxybenzamido)-3-(undecylthio)propanoic acid)], the “hIcmt inhibition (in words)” value in test [5] is listed as “particularly poor inhibitor of hIcmt”.
Consider `CCCCCCCCn1cc(CC(N)=O)c2cc(-c3cccc(C)c3)ccc21` [Cysmethynil], for which the “Effect on PC3 prostate cancer cells” value in test [6] is on record as “induction of autophagic cell death”.
As to “anthranilic farnesylcysteine [anthranilic acid analog]”, in test [7], the IC50 is 7.1 µM.

The term Ki denotes the dissociation constant of the complex between target and ligand, obtained from inhibition or displacement. A high value points to weaker binding. One may read the IC50 as the point on the concentration scale where inhibition reaches its midpoint.
